Patent US9371337B2, “β-lactamase inhibitors” (The Regents of the University of California, priority 2011, dated 2016)
“And” between values parts separate entries of the source, which are not always exact repeats. Equal values may be shown once. Read-outs that look alike come from different tables or passages of the source.

Columns and labels:
[1] = tested on: Trypsin; assay: Trypsin inhibition; format: biochemical; settings: Table 4h, Trypsin vs AmpC
[2] = biological target: T1, Trypsin (UniProt P00760); assay: Trypsin inhibition; format: biochemical; settings: for Percentage activity with 100 μM inhibitor: Table 4b; for Percentage inhibition with 100 μM inhibitor: Table 4c; for potency estimated from few doses: read-out: IC50 (Estimated from single concentration measurement), Table 4e
T1 construct: IC50 (Estimated from single concentration measurement); Ki
T1 sequence (P00760 1-246): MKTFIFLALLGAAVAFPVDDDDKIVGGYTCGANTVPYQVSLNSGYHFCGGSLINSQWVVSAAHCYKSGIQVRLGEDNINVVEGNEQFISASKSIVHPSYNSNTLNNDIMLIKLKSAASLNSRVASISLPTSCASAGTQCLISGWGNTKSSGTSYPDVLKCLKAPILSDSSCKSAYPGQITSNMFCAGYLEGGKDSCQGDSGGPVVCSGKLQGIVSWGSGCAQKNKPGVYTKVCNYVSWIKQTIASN

[3] = biological target: T2, α-chymotrypsin (bovine pancreatic) (Bos taurus, UniProt P00766); assay: α-Chymotrypsin inhibition; format: biochemical; settings: for activity at 100 µM: Table 4b, 100 μM inhibitor, read-out: Percentage activity with 100 μM inhibitor; for potency estimated from few doses: Table 4e, read-out: IC50 (Estimated from single concentration measurement); for Ki: Table 10, α-Chymotrypsin; for Selectivity vs AmpC (comparison of IC50 values): Table 4h, Chymotrypsin vs AmpC; for inhibition at 100 µM: read-out: Percentage inhibition with 100 μM inhibitor
T2 construct: purchased Sigma-Aldrich
Protocol: α-Chymotrypsin assays were performed in 50 mM Tris buffer pH 7.5 with 0.01% Triton-X. Inhibitor and 0.001 mg/mL enzyme were incubated at their final concentration for 10 min before the reaction was initiated by the addition of 200 μM N-succinyl-Ala-Ala-Pro-Phe p-nitroanilide and monitored at 410 nm.
(§1) To assess the selectivity of the new molecules we determined Ki values against three common serine proteases, Trypsin, Elastase and α-Chymotrypsin, as well as that of a class A β-lactamase, CTX-M-9 (Table 10) (Pouvreau L, et al. (1998), FEBS Lett 423:167-172; Del Mar E G, et al. (1980), Biochemistry 19:468-472; Rodriguez-Martinez J A, et al. (2009), Biotechnol Lett 31:883-887; Chen Y, et al. (2005), J Mol Biol 348:349-362).

[4] = biological target: T3, AmpC β-lactamase (Escherichia coli, UniProt P00811); assay: biochemical; format: biochemical
T3 construct: made in house
T3 sequence (P00811 20-377): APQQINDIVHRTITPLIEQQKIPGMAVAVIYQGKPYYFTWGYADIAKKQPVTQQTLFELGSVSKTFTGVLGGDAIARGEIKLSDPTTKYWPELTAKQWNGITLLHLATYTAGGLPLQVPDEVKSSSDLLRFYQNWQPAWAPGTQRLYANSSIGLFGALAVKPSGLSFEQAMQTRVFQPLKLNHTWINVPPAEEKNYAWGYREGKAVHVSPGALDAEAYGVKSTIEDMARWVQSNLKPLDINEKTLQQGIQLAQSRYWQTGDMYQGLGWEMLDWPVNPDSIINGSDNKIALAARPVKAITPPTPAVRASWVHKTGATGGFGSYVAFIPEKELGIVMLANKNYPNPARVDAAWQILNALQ
Protocol: FIG. 18. Representative IC50 curves. […] IC50 curves were obtained by measuring rates (in duplicates) at different inhibitor concentrations (x-axis) and by determining the residual activity (y-axis, in percentage). IC50 values were determined by non-linear regression and Ki values calculated using GraphPad software assuming competitive inhibition.
Sulfonamidomethaneboronic acids were dissolved in 100% DMSO at a concentration of 100 mM; more diluted stocks were prepared as necessary. […] The enzyme was expressed and purified as described (Usher, K. C. et al., Biochemistry 1998, 37, 16082-16092) and CENTA was purchased from Tydock Pharma.
Kinetic measurements were run at room temperature in 50 mM sodium-cacodylate pH 6.5 in the presence of 0.01% Triton-X to prevent non-specific inhibition via compound aggregation. […] (Kettner, C. A. and Shenvi, A. B., J. Biol. Chem. 1984, 259, 15106-15114) Reactions were performed in 1 mL cuvettes with 60 μM CENTA and initiated by adding 1.2 nM enzyme. […] (Weston, G. S. et al., J. Med. Chem. 1998, 41, 4577-4586) The first 180 sec of each reaction were used to measure initial rates. IC50 values were obtained by fitting binding data to a sigmoidal dose-response equation using GraphPad Prism (GraphPad software, Inc). Ki values were determined by the use of Cheng-Prusoff equation. (Cheng, Y. and Prusoff, W. H., Biochem. Pharmacol. 1973, 22, 3099-3108)

[5] = biological target: T3, AmpC β-lactamase; format: biochemical; settings: for type of inhibition: Lineweaver-Burk analysis, competition with substrate CENTA; for time dependence of inhibition (incubation effect, off-rate): enzyme incubation and dilution experiments
[6] = tested on: clinical strains resistant to third-generation cephalosporins; assay: MIC distribution of third-generation cephalosporins alone or with compounds over clinical strains; format: cell-based; settings: for clinical isolates for which MICs dropped into the susceptible range (MICs≦1 μg/mL): cephalosporins combined with the compound; for MIC 25% percentile / MIC 75% percentile: third-generation cephalosporins in combination with the compound
Protocol: The anti-resistance activity of inhibitors was investigated by the determination of the minimum inhibitory concentrations (MICs) of the β-lactam/inhibitor combination necessary to inhibit the growth of clinically-isolated bacteria resistant to third-generation cephalosporins via expression of class A or class C β-lactamases (Table 6).
Susceptibility testing was performed and interpreted following the guidelines of CLSI. (Clinical and Laboratory Standards Institute, Performance standards for antimicrobial susceptibility testing, 20th Informational Supplement, M100-S20 2010) The compounds were dissolved in 50% DMSO, and dilutions were performed using Muller-Hinton medium. An adequate final concentration was obtained to determine the minimum inhibitory concentrations (MICs). The concentration of DMSO was maintained below 5%. The inhibitors were tested for synergy with the third-generation β-lactams ceftazidime and cefotaxime against several clinical bacteria. The ratio of β-lactams to inhibitors was 1:4. Each value reported reflects the average of three independent experiments. […] The Friedman's test and the Wilcoxon signed rank test were used to compare MIC values. Statistical significance was established at p<0.05.

[7] = biological target: T1, Trypsin; assay: Trypsin inhibition; format: biochemical; settings: Table 10, Trypsin
Text: as §1

[8] = tested on: Elastase; assay: Elastase inhibition; format: biochemical; settings: Table 4h, Elastase vs AmpC
Text: as §1

[9] = biological target: CTX-M-9 β-lactamase (Escherichia coli, UniProt Q9L5C8); assay: biochemical; format: biochemical; settings: for Selectivity vs AmpC (comparison of IC50 values): Table 4h, CTX-M-9 vs AmpC; for potency estimated from few doses: read-out: IC50 (Estimated from single concentration measurement); for inhibition at 16 µM: read-out: Percentage inhibition with 16 μM inhibitor
CTX-M-9 β-lactamase, sequence (Q9L5C8 29-291): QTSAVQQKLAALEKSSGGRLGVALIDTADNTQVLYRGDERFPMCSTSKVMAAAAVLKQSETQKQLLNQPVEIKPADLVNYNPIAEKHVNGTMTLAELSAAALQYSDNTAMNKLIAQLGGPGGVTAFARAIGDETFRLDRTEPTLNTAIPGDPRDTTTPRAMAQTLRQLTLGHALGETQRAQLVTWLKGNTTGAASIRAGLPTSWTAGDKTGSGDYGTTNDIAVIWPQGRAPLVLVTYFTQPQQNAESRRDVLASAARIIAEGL
Protocol: Reactions were initiated by the addition of 0.3 nM enzyme and monitored at 405 nm.
as §1

[10] = Ki (from multi- or single concentration measurements), Table 4g
[11] = Table 8, read-out: Ki vs CTX-M-9

Structure (SMILES) | Selectivity vs AmpC (comparison of IC50 values) [1] | Percentage activity with 100 μM inhibitor [2] | Percentage inhibition with 100 μM inhibitor [2] | potency estimated from few doses [2] [µM] | activity at 100 µM [3] [%] | potency estimated from few doses [3] [µM] | Ki [3] [µM] | Selectivity vs AmpC (comparison of IC50 values) [3] | inhibition at 100 µM [3] [%] | IC50 [4] [µM] | Ligand efficiency ([4]; Table 5) | type of inhibition [5] | time dependence of inhibition (incubation effect, off-rate) [5] | clinical isolates for which MICs dropped into the susceptible range (MICs≦1 μg/mL) [6] [%] | MIC 25% percentile [6] [µg/mL] | MIC 75% percentile [6] [µg/mL] | Ki [7] [µM] | Selectivity vs AmpC (comparison of IC50 values) [8] | IC50 [9] [µM] | Selectivity vs AmpC (comparison of IC50 values) [9] | other results
O=S(=O)(NCB(O)O)c1ccc(-c2nnn[nH]2)cc1 [CR157, [4-(3-tetrazol-5-yl)benzensulfonylamino]methaneboronic acid] | 306452 | 95 | 5 | 1900 | 90 | 900 | 224 | 145161 | 10 | 0.0062 | 0.63 | competitive | incubation effect owing to slow off-rates | 25 | 1.5 | 4.0 | 350 | 31309 | 10.5 | 1694 | Ki ([4]; Ki): 0.8 to 1.3 nM; Ki [4, 10]: 1.2 nM; Ki ([4]; Ki Vs AmpC, Table 7): 1.2 nM; Ki ([4]; Ki vs AmpC, Table 8): 1.2 nM; Ki ([4]; Ki, Table 5): 1.2 nM; Ki ([4]; Ki, Table 10, AmpC): 1.2 nM; Ki [9, 11]: 2.5 µM; potency estimated from few doses [9]: 6 µM; inhibition at 16 µM [9]: 73%
O=S(=O)(NCB(O)O)c1ccc(-c2nn[nH]n2)nc1 [CR161, [6-(3-tetrazol-5-yl)pyridin-3-sulfonylamino]methaneboronic acid hydrocloride] | 287879 | 95 | 5 | 1900 | 90 | 900 | 224 | 136364 | 10 | 0.0066 | 0.64 | competitive | incubation effect owing to slow off-rates | 75 | 0.5 | 1.5 | 350 | 25799 | 6.7 | 1015 | Ki ([4]; Ki): 0.8 to 1.3 nM; Ki [4, 10]: 0.8 nM; Ki ([4]; Ki Vs AmpC, Table 7): 0.8 nM; Ki ([4]; Ki vs AmpC, Table 8): 0.8 nM; Ki ([4]; Ki, Table 5): 0.8 nM; Ki ([4]; Ki, Table 10, AmpC): 0.8 nM; Ki [9, 11]: 3.9 µM; potency estimated from few doses [9]: 8 µM; inhibition at 16 µM [9]: 66%
O=C(O)c1cccc(CS(=O)(=O)NCB(O)O)c1 [CR167, [3-(Carboxyphenyl)methanesulfonylamino]methaneboronic acid] | 292308 | 95 | 5 | 1900 | 99 | 9900 | 2460 | 1523077 | 1 | 0.0065 | 0.66 | competitive | incubation effect owing to slow off-rates | 75 | 0.5 | 1.5 | 350 | 22139 | 0.125 | 19 | Ki ([4]; Ki): 0.8 to 1.3 nM and 1.3 nM; Ki [4, 10]: 1.3 nM; Ki ([4]; Ki Vs AmpC, Table 7): 1.3 nM; Ki ([4]; Ki vs AmpC, Table 8): 1.3 nM; Ki ([4]; Ki, Table 5): 1.3 nM; Ki ([4]; Ki, Table 10, AmpC): 1.3 nM; selectivity towards AmpC versus CTX-M-9 β-lactamase ([9]; ratio of Ki values): ~30 fold; potency estimated from few doses [9]: 0.162 µM; Ki ([9]; read-out: Ki): 0.045 µM; inhibition at 16 µM [9]: 99%
O=S(=O)(NCB(O)O)c1ccc(-c2nnn[nH]2)cc1C(F)(F)F [CR192, [4-(3-tetrazol-5-yl)-2-trifluoromethyl-benzensulfonylamino]methaneboronic acid] | 6000000 | 96 | 4 | 2400 | 85 | 567 | 141 | 1416667 | 15 | 0.0004 | 0.60 | competitive | slow off-rate | 50 | 1.0 | 2.0 | 442 | 34091 | 5 | 11948 | time until substrate hydrolysis rates converge (equilibrium) ([4]; 50 pM AmpC, 500 pM inhibitor, with or without 5 minutes pre-incubation): 10 to 15 min; Ki ([4]; Table 4g, read-out: Ki (from multi- or single concentration measurements)): 0.05 nM; Ki ([4]; Table 5, read-out: Ki): 0.05 nM; Ki ([4]; Table 7, read-out: Ki Vs AmpC): 0.05 nM; Ki ([4]; Table 8, read-out: Ki vs AmpC): 0.05 nM; Ki ([4]; Table 10, AmpC, read-out: Ki): 0.05 nM; improved affinity compared to CR157 ([4]; ratio of Ki values): 24 fold; Ki ([4]; running text and FIG. 18, substrate CENTA 105 μM, read-out: Ki): 0.05 nM; Ki [9, 11]: 1.8 µM; potency estimated from few doses [9]: 5 µM; inhibition at 16 µM [9]: 77%
O=S(=O)(Cc1cccs1)NCB(O)O [Compound 10] |  |  |  |  |  |  |  |  |  |  |  |  |  |  |  |  |  |  |  |  | melting point: 185 to 188 °C
